Earlier results on one molecule are cited in PMC9308844, “Development of new copper-64 labeled rhodamine: a potential PET myocardial perfusion imaging agent” (EJNMMI Radiopharmacy and Chemistry, 2022).

Details of the series: method as in earlier work. The note with it: ref Baranyai et al. [2020]; Clarke et al. 1990; Clarke and Martell [1991a], [b]; Wadas et al. [2010]; Tolmachev et al. [2017].

Consider `O=C([O-])CN1CCN(CC(=O)[O-])CCN(CC(=O)[O-])CC1.[Cu+2]` [[Cu^II NOTA]], for which the “Log K of Cu^II complex” value is given as 21.6.
